Among the data in US11865176B2, “Compositions and methods of modulating anti-tumor immunity” (Dana-Farber Cancer Institute, Inc., priority 2016, dated 2024) are Zscore_1, Zscore_2 and Zscore_AVG values, retold here.

In this assay the test system is PD-1-overexpressing Jurkat cells. The experiment in a line: Small molecule screen: IL2 secretion (AlphaLISA) from stimulated PD-1-overexpressing Jurkat cells. Type of assay: cell-based, human. In a few lines: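 Cells (100,000/well) with compound at 3.3 μM final, stimulated by α-CD3/α-CD28/α-PD-1 Dynabeads at an 8:1 bead:cell ratio. IL2 in supernatants measured by AlphaLISA. Hits scored ≥3 SD from the mean of DMSO-treated, α-PD-1-bead-stimulated controls.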
A general note: Alpha assays give light when donor and acceptor beads are brought close together.

Where [1] appears, read: IL2 level, replicate 1, 3.3 μM compound, α-CD3/α-CD28/α-PD-1 beads.
The mark [2] stands for this setting: IL2 level, replicate 2, 3.3 μM compound, α-CD3/α-CD28/α-PD-1 beads.
Where [3] appears, read: average of replicate Z scores, 3.3 μM compound.

“And” between values parts separate entries of the source, which are not always exact repeats. Equal values may be shown once. Read-outs that look alike come from different tables or passages of the source.

For the compound `N#Cc1cc([N+](=O)[O-])c2sc(C(N)=O)[n+]([O-])c2c1` [Polo-like Kinase Inhibitor II, BTO-1], the Zscore_1 under setting [1] is −1.795. Besides, the Zscore_2 under setting [2] was −0.518. For the same compound, the Zscore_AVG under setting [3] is −1.156.

Regarding `CC(C)[C@H](CO)Nc1nc(Nc2cccc(Cl)c2)c2ncn(C(C)C)c2n1` [Purvalanol A], the Zscore_1 under setting [1] is −3.126. The compound further yielded a Zscore_2 under setting [2] of 0.37. Besides, the Zscore_AVG under setting [3] is −1.378.

Turning to `O=c1c(O)c(-c2ccc(O)c(O)c2)oc2cc(O)c(O)c(O)c12` [Quercetagetin], under setting [1], the Zscore_1 is recorded as −1.427. Under setting [2], the Zscore_2 is on record as −1.66. Moreover, under setting [3], the Zscore_AVG was −1.543.

Consider `C[C@@H](N)[C@H]1CC[C@H](C(=O)Nc2ccncc2)CC1` [ROCK Inhibitor, Y-27632], for which the Zscore_1 under setting [1] is −3.269. Besides, under setting [2], the Zscore_2 is −4.375. For the same compound, the Zscore_AVG under setting [3] is reported as −3.822.

As to `CC(=O)O[C@@H]1[C@@H](OC(C)=O)[C@@H](O)[C@H](Oc2c(-c3ccc(O)cc3)oc3cc(O)cc(O)c3c2=O)O[C@H]1C` [RSK Inhibitor, SL0101], the Zscore_1 under setting [1] is reported as 1.689. Moreover, the Zscore_2 under setting [2] is −0.3488. The Zscore_AVG under setting [3] worked out at 0.67.

`CO[C@H]1C[C@@H]2CC[C@@H](C)[C@@](O)(O2)C(=O)C(=O)N2CCCC[C@H]2C(=O)O[C@H]([C@H](C)C[C@@H]2CC[C@@H](O)[C@H](OC)C2)CC(=O)[C@H](C)/C=C(\C)[C@@H](O)[C@@H](OC)C(=O)[C@H](C)C[C@H](C)/C=C/C=C/C=C/1C` [Rapamycin]: the Zscore_1 under setting [1] is given as −1.883. For the same compound, the Zscore_2 under setting [2] is reported as −3.367. Besides, under setting [3], the Zscore_AVG is on record as −2.625.

Consider `COc1ccc2nc3n[nH]c(C)c3c(NCCOCCO)c2c1` [Ras/Rac Transformation Blocker, SCH 51344], for which the Zscore_1 under setting [1] was −2.363. The Zscore_2 under setting [2] was −3.128. Also, under setting [3], the Zscore_AVG was −2.746.

For the compound `c1nc2nc(Nc3ccc(N4CCOCC4)cc3)nc(NC3CCCCC3)c2[nH]1` [Reversine], the Zscore_1 under setting [1] is given as −3.512. The Zscore_2 under setting [2] is listed as −5.332. Further, the Zscore_AVG under setting [3] is listed as −4.422.

As for `c1ccc2c(-c3ccncc3)c[nH]c2c1` [Rho Kinase Inhibitor III, Rockout], the Zscore_1 under setting [1] was −0.1806. Besides, under setting [2], the Zscore_2 is recorded as −2.59. Also, the Zscore_AVG under setting [3] was −1.385.

In the case of `O=C(Nc1ccncc1)Nc1c(Cl)cc(Cl)cc1Cl` [Rho Kinase Inhibitor II], the Zscore_1 under setting [1] is on record as −1.746. Under setting [2], the Zscore_2 was −1.88. Under setting [3], the Zscore_AVG is reported as −1.813.

As to `Cc1cncc2cccc(S(=O)(=O)N3CCCN(C(=O)CN)C[C@@H]3C)c12` [Rho Kinase Inhibitor IV], the Zscore_1 under setting [1] is reported as −5.704. Moreover, under setting [2], the Zscore_2 is −5.042. For the same compound, the Zscore_AVG under setting [3] is on record as −5.373.

For `O=C(Nc1ccc(-c2cn[nH]c2)cc1)C1COc2ccccc2O1` (stereo not drawn) [Rho Kinase Inhibitor V], the Zscore_1 under setting [1] was −0.6152. The Zscore_2 under setting [2] is listed as −2.172. Under setting [3], the Zscore_AVG was −1.394.

Take `Cn1cc(C2=C(c3cn(CCCSC(=N)N)c4ccccc34)C(=O)NC2=O)c2ccccc21` [Ro-31-8220]: under setting [1], the Zscore_1 is −5.987. In addition, under setting [2], the Zscore_2 is given as −6.268. The Zscore_AVG under setting [3] was −6.128.

For `CC[C@H](CO)Nc1nc(NCc2ccccc2)c2ncn(C(C)C)c2n1` [Roscovitine], the Zscore_1 under setting [1] is reported as −1.54. Besides, the Zscore_2 under setting [2] is listed as −2.209. In addition, under setting [3], the Zscore_AVG is reported as −1.875.

Regarding `Oc1ccc(-c2nc(-c3ccc(F)cc3)c(-c3ccncc3)[nH]2)cc1` [SB 202190], the Zscore_1 under setting [1] is −1.512. For the same compound, under setting [2], the Zscore_2 is on record as −3.097. In addition, the Zscore_AVG under setting [3] is −2.304.

On to `CCc1nc(-c2ccc(OC)cc2)[nH]c1-c1ccncc1` [SB 202474, Neg Con for p38 MAPK Inhibition Studies], for which the Zscore_1 under setting [1] is reported as −2.475. In addition, under setting [2], the Zscore_2 was −0.6025. Moreover, under setting [3], the Zscore_AVG is −1.539.

In the case of `CS(=O)(=O)c1ccc(-c2nc(-c3ccc(F)cc3)c(-c3ccncc3)[nH]2)cc1` [SB 203580, Sulfone], the Zscore_1 came out at 2.85, the Zscore_2 is recorded as −0.6448 and the Zscore_AVG was 1.103.

On to `C[S+]([O-])c1ccc(-c2nc(-c3ccc(F)cc3)c(-c3ccncc3)[nH]2)cc1` (stereo not drawn) [SB 203580], for which the Zscore_1 under setting [1] is −0.8209. For the same compound, the Zscore_2 under setting [2] is −0.02124. For the same compound, the Zscore_AVG under setting [3] is −0.4211.

For the compound `O=C1NC(=O)c2c1c1c3ccccc3n3c1c1c2c2ccccc2n1C1CCC3O1` [SB 218078], the Zscore_1 under setting [1] is recorded as −0.8723. For the same compound, under setting [2], the Zscore_2 is −1.561. Also, the Zscore_AVG under setting [3] is −1.217.

On to `Nc1nccc(-c2c(-c3ccc(F)cc3)ncn2C2CCNCC2)n1` [SB 220025], for which the Zscore_1 under setting [1] was determined as 14.69. In addition, the Zscore_2 under setting [2] is on record as 27.59. For the same compound, the Zscore_AVG under setting [3] is 21.14.

Turning to `COc1nccc(-c2c(-c3ccc(F)cc3)ncn2C2CCC(O)CC2)n1` (stereo not drawn) [SB 239063], under setting [1], the Zscore_1 was −0.08397. Further, the Zscore_2 under setting [2] came to 1.041. The same compound showed a Zscore_AVG under setting [3] of 0.4785.

As for `Cc1nc(-c2ccccc2)c(-c2ccncc2)o1` [SC-68376], under setting [1], the Zscore_1 was −1.404. Moreover, the Zscore_2 under setting [2] is −0.2868. Also, the Zscore_AVG under setting [3] is −0.8452.

With `Fc1ccc(-c2nc3n(c2-c2ccncc2)CCS3)cc1` [SKF-86002], the Zscore_1 under setting [1] was −0.4953. The Zscore_2 under setting [2] was −2.331. In addition, the Zscore_AVG under setting [3] is reported as −1.413.

For the compound `O=C(O)c1ccc2c3c1cccc3c(=O)n1c3ccccc3nc21` [STO-609], under setting [1], the Zscore_1 is recorded as −1.71. The Zscore_2 under setting [2] is −1.025. Moreover, under setting [3], the Zscore_AVG was −1.368.

The compound `CN(C)S(=O)(=O)c1ccc2c(c1)/C(=C/c1cc3c([nH]1)CCCC3)C(=O)N2` [SU6656] came in with a Zscore_1 under setting [1] of 1.733. Further, the Zscore_2 under setting [2] is given as 1.333. Also, under setting [3], the Zscore_AVG is recorded as 1.533.

In the case of `COc1ccc2c(c1)/C(=C/c1cnc[nH]1)C(=O)N2` [SU9516], under setting [1], the Zscore_1 worked out at 8.231. Under setting [2], this compound gave a Zscore_2 of 12.12. In addition, the Zscore_AVG under setting [3] amounted to 10.18.

The compound `CCN(CC)CCNC(=O)c1c(C)[nH]c(/C=C2\C(=O)Nc3ccc(Cl)cc32)c1C` [SU11652] returned a Zscore_1 under setting [1] of 8.033. Further, under setting [2], the Zscore_2 is −6.691. Further, the Zscore_AVG under setting [3] is 0.671.

For the compound `Oc1ccc(Nc2nc(-c3ccc(Cl)cc3)cs2)cc1` [Sphingosine Kinase Inhibitor], the Zscore_1 under setting [1] is given as −3.806. Further, the Zscore_2 under setting [2] is on record as −4.154. Moreover, the Zscore_AVG under setting [3] is listed as −3.98.

`COc1cc2ncnc(Nc3ccc(Oc4ccccc4)cc3)c2cc1OC` [Src Kinase Inhibitor I] returned a Zscore_1 under setting [1] of 4.691. This compound came in with a Zscore_2 under setting [2] of 1.808. For the same compound, the Zscore_AVG under setting [3] came to 3.249.

As to `CN[C@@H]1C[C@H]2O[C@@](C)([C@@H]1OC)n1c3ccccc3c3c4c(c5c6ccccc6n2c5c31)C(=O)NC4` [Staurosporine, Streptomyces sp.], the Zscore_1 under setting [1] is −6.893 and −7.431. For the same compound, the Zscore_2 under setting [2] is −9.439 and −9.651. In addition, the Zscore_AVG under setting [3] was −8.166 and −8.541.

In the case of `CC(C)(C)c1ccc(S(=O)(=O)Nc2ccc(-n3ccnc3)cc2)cc1` [Stem-Cell Factor/c-Kit Inhibitor, ISCK03], the Zscore_1 under setting [1] was −0.9751. Also, the Zscore_2 under setting [2] is −0.07435. For the same compound, the Zscore_AVG under setting [3] is given as −0.5247.

Turning to `O=[N+]([O-])/C=C/c1ccc2c(c1)OCO2` [Syk Inhibitor III], the Zscore_1 under setting [1] is recorded as −0.8894. This compound also had a Zscore_2 under setting [2] of 0.1912. The Zscore_AVG under setting [3] is on record as −0.3491.

`NCCNc1ncc(C(N)=O)c(Nc2cccc(C(F)(F)F)c2)n1` [Syk Inhibitor II]: the Zscore_1 under setting [1] is listed as −0.7866. Further, the Zscore_2 under setting [2] is −0.6851. Under setting [3], the Zscore_AVG was −0.7358.

Take `Cc1cccc(-c2[nH]c(C(C)(C)C)nc2-c2ccc3c(c2)OCO3)n1` [TGF-b RI Inhibitor III]: the Zscore_1 under setting [1] is recorded as −0.4096. The Zscore_2 under setting [2] was −0.6585. Besides, the Zscore_AVG under setting [3] is listed as −0.5341.

In the case of `c1ccc(-c2[nH]ncc2-c2ccnc3ccccc23)nc1` [TGF-b RI Kinase Inhibitor], the Zscore_1 under setting [1] was −0.7181. Also, the Zscore_2 under setting [2] is −1.933. The Zscore_AVG under setting [3] is recorded as −1.326.

Turning to `Cc1cc(C=C2C(=O)C=CC2=O)cc(C)c1O` [TX-1918], under setting [1], the Zscore_1 is given as −0.9736. The Zscore_2 under setting [2] was −2.336. The Zscore_AVG under setting [3] is reported as −1.655.

For the compound `N#Cc1cnc2cnc(NCc3cccnc3)cc2c1Nc1ccc(F)c(Cl)c1` [Tpl2 Kinase Inhibitor], under setting [1], the Zscore_1 was −2.9. Besides, the Zscore_2 under setting [2] was −5.972. Under setting [3], the Zscore_AVG was −4.436.

Take `CN[C@@H]1C[C@H]2O[C@@](C)([C@@H]1OC)n1c3ccccc3c3c4c(c5c6ccccc6n2c5c31)C(=O)N[C@@H]4O` [UCN-01]: under setting [1], the Zscore_1 was −7.46. In addition, the Zscore_2 under setting [2] is −8.298. Further, under setting [3], the Zscore_AVG is given as −7.879.

On to `Cc1cc(C)c(/C=C2\C(=O)Nc3ccccc32)[nH]1` [VEGF Receptor 2 Kinase Inhibitor III], for which the Zscore_1 under setting [1] is reported as −0.2089. The Zscore_2 under setting [2] was −2.04. Besides, under setting [3], the Zscore_AVG is on record as −1.124.

The compound `O=C1Nc2ccc(Br)cc2/C1=C/c1cc2c([nH]1)CCCC2` [VEGF Receptor 2 Kinase Inhibitor II] came in with a Zscore_1 under setting [1] of 0.1217. Also, the Zscore_2 under setting [2] is recorded as −0.1806. The Zscore_AVG under setting [3] is on record as −0.02944.

For `COc1ccc(-c2cnc3c(-c4ccsc4)cnn3c2)cc1` [VEGF Receptor 2 Kinase Inhibitor IV], under setting [1], the Zscore_1 was −1.795. Under setting [2], this compound gave a Zscore_2 of 1.512. Under setting [3], the Zscore_AVG was −0.1417.
